In brackets after ≈: the same amount, converted by molar mass.
How the values were obtained:
HIV-1 IIIB = assay: microbe, parasite or virus in culture; assay type: cell-based
Protocol: Antibody depletion experiments were conducted on the product prepared as described in Example 3 by the panning technique as follows. […] The plate was incubated for 3 hours at room temperature. Following the incubation, the antibodies and PBS were removed and 200 μL of blocking solution (0.05% Tween 20, 10 mg/mL BSA in PBS) was added and the plate was incubated overnight at 4° C. Following the overnight incubation, the wells were washed 5 times with wash buffer (PBS plus 0.05% Tween-20). One hundred fifty microliters (150 μL) of the serum product (designated VR-30) was added to each of the wells and the plate was incubated for 2 hours at 37° C.
The serum was then removed and used in the HIV-β-galactosidase attachment assay. The depleted material was evaluated for activity in parallel with undepleted VR-30 (VR-30 Std Treatment) and mock-depleted VR-30 (VR-30 PBS).
The anti-HIV-activity of the initial serum sample is determined by: (1) measuring the protein concentration of the serum fraction using Bradford or Lowery based method for determining protein concentration; (2) determining the activity of the fraction using established in vitro anti-viral assay (attachment assay); (3) assigning a unit of activity to the fraction based on the amount of protein needed to achieve a 50% inhibition of viral replication/infectivity (IC50). This unit can be used as a baseline to track the fold purification obtained through the fractionation process.
Efficacy plates were evaluated by the chemilluminescence detection assay.
All EC50's in FIG. 2 and Table IV are the concentration of total protein (μg/ml) in a given fraction that inhibited viral replication in the attachment assay to 50% of the no compound control.

HeLa LTR β-Gal cells = assay: Cellular toxicity in parallel plates, tetrazolium dye (XTT) cell viability end point
Protocol: The fold increase in activity was calculated as a relative decrease in EC50 to the Week 0 material. Chicago Sky Blue was included as a positive control for inhibition of viral attachment.
HIV Attachment Assay: A crude serum sample dialyzed against Buffer A, the dialyzed 66% ammonium sulfate pellet, and DEAE-Blue fractions 12, 14, 60, 62, 64, and 66 were analyzed for anti-HIV activity in a virus attachment assay. These fractions were diluted in Buffer A to a 2× high test concentration and analyzed for anti-HIV activity in a cell attachment assay that utilizes a galactosidase reporter to measure virus attachment and infection. Sister plates were used to evaluate fraction toxicity using an XTT based end point. Briefly, on the day prior to compound and virus addition, 100 μL of HeLa LTR β-Gal cells at a density of 1×10^4/well in 10% complete DMEM were plated in 96-well flat bottomed plates and incubated overnight at 37° C./5% CO2. Duplicate plates were seeded in order to evaluate efficacy and toxicity in parallel. Following the overnight incubation, selected protein fractions diluted to a high test concentration in culture media and were further diluted in ½ log increments such that a total of 6 concentrations were evaluated.
Medium was removed and 50 μL of the prepared compound dilutions were added in triplicate to both plates. A volume of 50 μL of 10% complete DMEM was added to the virus control wells and 100 μL was added to the cell control wells. Plates were incubated for approximately 15-30 minutes while virus (HIV-1 IIIB) was being prepared. The appropriate titer of virus used in the assay was determined and prepared and 50 μL was then added to the wells containing compound and the virus control wells on the efficacy plate. On the toxicity plate, 50 μL of 10% complete DMEM was added to these same wells. Plates were incubated for 2 hours at 37° C./5% CO2. […] Following the washing steps, 200 μL of 10% complete DMEM was added to all wells and the plates were incubated at 37° C./5% CO2 for 48 hours. The toxicity plates were evaluated by the addition of the tetrazolium dye XTT which is converted by mitochondrial enzymes in viable cells to a soluble formazan product. Efficacy plates were evaluated by the chemilluminescence detection assay.

[1] = test system: monocytes and macrophages; details: antiviral models and cytokine induction from monocytes and macrophages; cited from earlier work

Row | Molecule | IC50 (HIV-1 IIIB; Human immunodeficiency virus 1, IIIB, HeLa) | EC50 (HIV-1 IIIB; Human immunodeficiency virus 1, IIIB, HeLa, Table II, total protein for 50% inhibition of HIV attachment and replication, triplicate) | EC50 (HIV-1 IIIB; Human immunodeficiency virus 1, IIIB, HeLa, Table V, total protein inhibiting viral replication to 50% of no compound control, HIV-1 IIIB) | TC50 (HeLa LTR β-Gal cells; Table I, control compounds) | TC50 (HeLa LTR β-Gal cells; Table II, 50% cellular toxicity, XTT) | TC50 (HeLa LTR β-Gal cells; Table V, XTT toxicity plates) | potency relative to imiquimod [1] | IC50 (HIV-1 IIIB; Table I, control compounds)
1 | COc1cc(-c2ccc(/N=N/c3ccc4c(S(=O)(=O)O)cc(S(=O)(=O)O)c(N)c4c3O)c(OC)c2)ccc1/N=N/c1ccc2c(S(=O)(=O)O)cc(S(=O)(=O)O)c(N)c2c1O [Chicago Sky Blue] | 1.3 µg/mL (≈ 1.44 µM) | 100 µg/mL (≈ 111 µM) | 0.6 µg/mL (≈ 0.663 µM) | >10 µg/mL | >10000 µg/mL | >10 µg/mL |  | 
2 | CCOCc1nc2c(N)nc3ccccc3c2n1CC(C)(C)O [Fraction S-28463, 4-Amino-otec,-dimethyl-2-ethoxymethyl-lH-imidazo[4,5-c]quinoline-1-ethanol] |  |  |  |  |  |  | about 100 fold | 
3 | Dextran Sulfate |  |  |  | >25 µg/mL |  |  |  | 0.65 µg/mL

Reference: patent US20060110405A1, “Plasma or serum fraction for treatment and prevention of viral infections and related conditions” (priority 2004, published 2006)
